Measurements taken from US12077503B2, “Substituted cyclic amides and their use as herbicides” (FMC CORPORATION, priority 2015, dated 2024).

What was measured:
Type in all cases: in vivo
[1] = tested on: corn (Zea mays); assay: Test A postemergence; settings: Zea mays, post-emergence, 240 h, read-out: Corn plant response rating (0 to 100 scale)
In short: (§1)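 Ratings of 0 (no effect) to 100 (complete control) come from visual comparison with untreated controls roughly 10 d after treatment. Test chemicals, formulated in a non-phytotoxic solvent mixture with surfactant, were applied either as a preemergence directed soil spray on seeded soil or postemergence to one- to two-leaf plants 2 to 10 cm tall.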

[2] = tested on: wheat (Triticum aestivum); assay: Test A postemergence; settings: Triticum aestivum, post-emergence, 240 h, Postemergence, 31 g ai/ha; 0 is no effect, 100 is complete control; read-out: Wheat plant response rating (0 to 100 scale)
In short: as §1

[3] = tested on: pigweed (Amaranthus retroflexus); assay: Test A postemergence; settings: Amaranthus retroflexus, post-emergence, 240 h, read-out: Pigweed plant response rating (0 to 100 scale)
In short: as §1

[4] = tested on: Kochia (Kochia scoparia); assay: Test A postemergence; settings: Bassia scoparia, post-emergence, 240 h, read-out: Kochia plant response rating (0 to 100 scale)
In short: as §1

[5] = tested on: Galium (catchweed bedstraw, Galium aparine); assay: Test A postemergence; settings: Galium, post-emergence, 240 h, read-out: Galium plant response rating (0 to 100 scale)
In short: as §1

[6] = tested on: ryegrass, Italian (Italian ryegrass, Lolium multiflorum); assay: Test A postemergence; settings: Lolium multiflorum, post-emergence, 240 h, read-out: Ryegrass, Italian plant response rating (0 to 100 scale)
In short: as §1

[7] = tested on: barnyardgrass (Echinochloa crus-galli); assay: Test A postemergence; settings: Echinochloa crus-galli, post-emergence, 240 h, read-out: Barnyardgrass plant response rating (0 to 100 scale)
In short: as §1

[8] = tested on: ragweed (common ragweed, Ambrosia elatior); assay: Test A postemergence; settings: Ambrosia artemisiifolia, post-emergence, 240 h, read-out: Ragweed plant response rating (0 to 100 scale)
In short: as §1

[9] = tested on: giant foxtail (Setaria faberii); assay: Test A postemergence; settings: Setaria faberi, post-emergence, 240 h, read-out: Foxtail, Giant plant response rating (0 to 100 scale)
In short: as §1

[10] = tested on: blackgrass (Alopecurus myosuroides); assay: Test A postemergence; settings: Alopecurus myosuroides, post-emergence, 240 h, read-out: Blackgrass plant response rating (0 to 100 scale)
In short: as §1

[11] = tested on: pigweed (Amaranthus retroflexus); assay: Test A preemergence; settings: Amaranthus retroflexus, pre-emergence, 240 h, 0 to 100 scale where 0 is no effect and 100 is complete control, read-out: Pigweed plant response rating
[12] = tested on: Kochia (Kochia scoparia); assay: Test A preemergence; settings: Bassia scoparia, pre-emergence, 240 h, 0 to 100 scale where 0 is no effect and 100 is complete control, read-out: Kochia plant response rating
In short: as §1

[13] = tested on: ryegrass, Italian (Italian ryegrass, Lolium multiflorum); assay: Test A preemergence; settings: Lolium multiflorum, pre-emergence, 240 h, 0 to 100 scale where 0 is no effect and 100 is complete control, read-out: Ryegrass, Italian plant response rating
In short: as §1

[14] = tested on: barnyardgrass (Echinochloa crus-galli); assay: Test A preemergence; settings: Echinochloa crus-galli, pre-emergence, 240 h, 0 to 100 scale where 0 is no effect and 100 is complete control, read-out: Barnyardgrass plant response rating
In short: as §1

[15] = tested on: ragweed (common ragweed, Ambrosia elatior); assay: Test A preemergence; settings: Ambrosia artemisiifolia, pre-emergence, 240 h, 0 to 100 scale where 0 is no effect and 100 is complete control, read-out: Ragweed plant response rating
In short: as §1

[16] = tested on: giant foxtail (Setaria faberii); assay: Test A preemergence; settings: Setaria faberi, pre-emergence, 240 h, 0 to 100 scale where 0 is no effect and 100 is complete control, read-out: Foxtail, Giant plant response rating
In short: as §1

[17] = tested on: sedge, umbrella (small-flower umbrella sedge, Cyperus difformis); assay: Test B flooded paddy test; settings: Cyperus difformis, 250 g ai/ha, Flood; 0 to 100 scale where 0 is no effect and 100 is complete control; read-out: Sedge, Umbrella plant response rating
In short: (§2)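 Response scored visually against untreated controls, 0 = no effect and 100 = complete control, 13–15 d after treatment in the greenhouse. Compounds added to paddy water held 3 cm above soil surface. Treatment given at 2-leaf stage.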

[18] = tested on: ducksalad (Heteranthera limosa); assay: Test B flooded paddy test; settings: Heteranthera limosa, 250 g ai/ha, Flood; 0 to 100 scale where 0 is no effect and 100 is complete control; read-out: Ducksalad plant response rating
In short: as §2

[19] = tested on: rice (Oryra sativa); assay: Test B flooded paddy test; settings: Oryza sativa, 250 g ai/ha, Flood; 0 to 100 scale where 0 is no effect and 100 is complete control; read-out: Rice plant response rating
In short: as §2

[20] = tested on: barnyardgrass (Echinochloa crus-galli); assay: Test B flooded paddy test; settings: Echinochloa crus-galli, 250 g ai/ha, Flood; 0 to 100 scale where 0 is no effect and 100 is complete control; read-out: Barnyardgrass plant response rating
In short: as §2

[21] = 125 g ai/ha, postemergence, visual injury vs untreated controls after approx. 10 d, 0 = no effect, 100 = complete control
[22] = Postemergence, 31 g ai/ha, 0 is no effect, 100 is complete control
[23] = 125 g ai/ha, preemergence, visual injury rating, approximately 10 d

Q: What does the source list for `O=C1NC[C@H](c2ccc(Cl)c(F)c2)[C@H]1C(=O)Nc1cccc(F)c1F` [Compound 1262]?
A: plant injury at 125 g/ha [1, 21]: 60%; plant injury at 31 g/ha [1, 22]: 20%; plant injury at 31 g/ha [2]: 0%; pest or weed control at 125 g/ha [3, 21]: 70%; pest or weed control at 31 g/ha [3, 22]: 30%; pest or weed control at 125 g/ha [4, 21]: 50%; pest or weed control at 31 g/ha [4, 22]: 20%; pest or weed control at 125 g/ha [5, 21]: 70%; pest or weed control at 31 g/ha [5, 22]: 30%; pest or weed control at 125 g/ha [6, 21]: 20%; pest or weed control at 31 g/ha [6, 22]: 0%; pest or weed control at 125 g/ha [7, 21]: 90%; pest or weed control at 31 g/ha [7, 22]: 70%; pest or weed control at 125 g/ha [8, 21]: 30%; pest or weed control at 31 g/ha [8, 22]: 0%; pest or weed control at 125 g/ha [9, 21]: 80%; pest or weed control at 31 g/ha [9, 22]: 70%; pest or weed control at 125 g/ha [10, 21]: 50%; pest or weed control at 31 g/ha [10, 22]: 0%; pest or weed control at 31 g/ha ([11]; 31 g ai/ha, Preemergence): 0%; pest or weed control at 125 g/ha [11, 23]: 50%; pest or weed control at 31 g/ha ([12]; 31 g ai/ha, Preemergence): 20%; pest or weed control at 125 g/ha [12, 23]: 60%; pest or weed control at 31 g/ha ([13]; 31 g ai/ha, Preemergence): 0%; pest or weed control at 125 g/ha [13, 23]: 0%; pest or weed control at 31 g/ha ([14]; 31 g ai/ha, Preemergence): 70%; pest or weed control at 125 g/ha [14, 23]: 90%; pest or weed control at 31 g/ha ([15]; 31 g ai/ha, Preemergence): 0%; pest or weed control at 125 g/ha [15, 23]: 0%; pest or weed control at 31 g/ha ([16]; 31 g ai/ha, Preemergence): 90%; pest or weed control at 125 g/ha [16, 23]: 90%; pest or weed control at 250 g/ha [17]: 0%; pest or weed control at 250 g/ha [18]: 100%; pest or weed control at 250 g/ha [19]: 10%; pest or weed control at 250 g/ha [20]: 65%
